Measured values published in US20090215693A1, “METHODS FOR INCREASING HYALURONIC ACID LEVELS AND IMPROVING MOISTURE RETENTION IN TISSUE” (priority 2008, published 2009).

System: Fibroblasts
Assay: Hyaluronic acid production by cultured fibroblasts (ELISA of culture medium)
Type: cell-based
Conditions: fibroblasts, 48 hours incubation, culture medium
Description: Fibroblasts were seeded into individual wells of a 12-well plate in 1.0 ml of Fibroblast Growth Media (FGM) and incubated overnight at 37±2° C. and 5±1% CO2. On the following day the media was removed via aspiration to eliminate non-adherent cells and replaced with 1.0 ml of fresh FGM. Cells were grown until confluent, with a media change every 48 to 72 hours. Upon reaching confluency the cells were treated for 24 hours with DMEM supplemented with 1.5% FBS to eliminate growth factors from the normal culture media. After this 24-hour wash-out period the cells were treated with the indicated test materials (i.e., milk-derived products containing lactoferrin) at the specified concentrations dissolved in FGM with 1.5% FBS. Dibutyrl cAMP (DBcAMP) at 0.1 mM was used as a positive control. Untreated cells (negative control) received FGM with 1.5% FBS. The cells were incubated for 48 hours and at the end of the incubation period cell culture medium was collected and either stored frozen (−75° C.) or assayed immediately. All testing was done in triplicate.
A series of hyaluronic acid standards from 50 ng/ml to 3,200 ng/ml was prepared. […] After incubation, 50 μl of stop solution was added to each well and the absorbance was measured at 405 nm using a plate reader. Hyaluronic acid production was expressed as ng/ml and results are shown in Table 1 and the graph of FIG. 1.

| SMILES | HA Measured (amount applied 4 mM) | HA Measured (amount applied 0.1 mM (positive control)) |
| --- | --- | --- |
| CCCC(=O)[O-].[Na+] [Sodium Butyrate] | 139 ± 6 ng/mL | – |
| CCCC(=O)Nc1ncnc2c1ncn2[C@@H]1O[C@@H]2COP(=O)(O)O[C@H]2[C@H]1OC(=O)CCC [DBcAMP, dibutyryl cyclic AMP] | – | 416 ± 24 ng/mL |
